Here are results for 64 compounds from US4036979A, “Compositions containing 4,5,6,7-tetrahydrobenz[b]thien-4-yl-ureas or derivatives and methods of enhancing growth rate” (American Cyanamid Company, priority 1976, dated 1977).

The first assay in a line: Mouse Growth Regulant Tests (12-day weight gain over controls, compound in diet). To be noted: Mus musculus, feed or water, 288 h, Table IX; 400 ppm in diet. Type of assay: in vivo, CFI female mice. Here is the method: CFI female mice from Carworth Farms are received when they are six weeks old. They are housed ten to a cage in air-conditioned rooms (72° F. to 76° F.) with automatically controlled lights, 14 hours on and 10 hours off. The basal diet used in these studies is Purina Laboratory Chow (see description below), which is supplied ad libitum. Water is also allowed ad libitum.
Thirteen days after arrival, the mice are weighed in groups of ten and assigned at random to the different treatments. Twelve days later the mice are weighed again and the experiment terminated. At least three cages (30 mice) of untreated controls are included in each test. Test data are provided in Tables VI, VII, VIII, and IX below wherein data are reported as percent weight gain over controls. Unless otherwise indicated in these tables, all compounds tested were dl-racemic mixtures. The following is a description of the diet to which the growth promoting compounds were added.
On to `NC(=O)NC1CCCC(=O)c2sccc21` (stereo not shown) [5,6,7,8-tetrahydro-4H-8-oxocyclohepta[b]thien-4-ylurea], for which the change in vivo at 400 ppm is 68.8%.

As to `COCNC(=O)NC1CCCCc2sccc21` (stereo not shown) [Table IX: O,H,H,CH2OCH3, 1-(methoxymethyl)-3-(5,6,7,8-tetrahydro-4H-cyclohepta[b]thien-4-yl)urea], the change in vivo at 400 ppm stood at 10%.

Turning to `CNC(=O)NC1CCCCc2sccc21` (stereo not shown) [Table IX: O,H,H,CH3, 1-methyl-3-(5,6,7,8-tetrahydro-4H-cyclohepta[b]thien-4-yl)urea], the change in vivo at 400 ppm was 41%.

`NC(=O)NC1CCCCc2sccc21` (stereo not shown) [Table IX: O,H,H,H, 5,6,7,8-tetrahydro-4H-cyclohepta[b]thien-4-ylurea]: the change in vivo at 400 ppm stood at 54%.

Take `CCNC(=S)NC1CCCCc2sccc21` (stereo not shown) [Table IX: S,H,H,C2H5, 1-ethyl-3-(5,6,7,8-tetrahydro-4H-cyclohepta[b]thien-4-yl)-2-thiourea]: the change in vivo at 400 ppm is 40%.

The same assay, now with this note: Mus musculus, feed or water, 288 h, Table VI; 200 ppm in diet.
As to `O=C(NC(=O)C(Cl)(Cl)Cl)NC1CCCc2sccc21` (stereo not shown), the change in vivo at 200 ppm stood at 37.4%.

Still in this assay, the particulars now being: Mus musculus, feed or water, 288 h, Table VI; 400 ppm in diet.
Turning to `O=C(NC1CCCc2sccc21)NC1CCCc2sccc21` (stereo not shown), the change in vivo at 400 ppm was found to be 43%.

Turning to `S=C(NCCc1ccccn1)NC1CCCc2sccc21` (stereo not shown), the change in vivo at 400 ppm stood at 15%.

In the case of `S=C(NC1CC1)NC1CCCc2sccc21` (stereo not shown), the change in vivo at 400 ppm was 32%.

`O=C(NC1CCCc2ccccc21)NC1CCCc2sccc21` (stereo not shown): the change in vivo at 400 ppm was 4%.

For the compound `O=C(NC1CCc2ccccc21)NC1CCCc2sccc21` (stereo not shown), the change in vivo at 400 ppm was found to be 8%.

Regarding `O=C(NC1CCCc2sccc21)N1CCC2(CC1)C(=O)NCN2c1ccccc1` (stereo not shown), the change in vivo at 400 ppm was 14%.

For `O=C(Nc1ccc(Cl)cc1Cl)NC1CCCc2sccc21` (stereo not shown), the change in vivo at 400 ppm was found to be 18%.

Consider `O=C(NCNC(=O)NC1CCCc2sccc21)NC1CCCc2sccc21` (stereo not shown), for which the change in vivo at 400 ppm is 29%.

For the compound `COc1ccc(NC(=O)NC2CCCc3sccc32)cc1` (stereo not shown), the change in vivo at 400 ppm was found to be 78%.

With `O=C(NCc1cccs1)NC1CCCc2sccc21` (stereo not shown), the change in vivo at 400 ppm is 39%.

On to `O=C(NCc1cccnc1)NC1CCCc2sccc21` (stereo not shown), for which the change in vivo at 400 ppm was 48%.

Regarding `C[n+]1cccc(CNC(=O)NC2CCCc3sccc32)c1` (stereo not shown), the change in vivo at 400 ppm amounted to 6%.

`O=C(Nc1ccc(Cl)cc1)NC1CCCc2sccc21` (stereo not shown): the change in vivo at 400 ppm came out at 21%.

For `COc1ccc(CNC(=O)NC2CCCc3sccc32)cc1` (stereo not shown), the change in vivo at 400 ppm was found to be 16%.

Regarding `O=C(NCc1ccccn1)NC1CCCc2sccc21` (stereo not shown), the change in vivo at 400 ppm turned out to be 41%.

With `O=C(NCc1ccncc1)NC1CCCc2sccc21` (stereo not shown), the change in vivo at 400 ppm was determined as 46%.

With `O=C(NC1CCCc2sccc21)N1CCNCC1` (stereo not shown), the change in vivo at 400 ppm stood at 3%.

Consider `O=C(NCc1ccc(Cl)cc1)NC1CCCc2sccc21` (stereo not shown), for which the change in vivo at 400 ppm amounted to 1%.

Regarding `O=C(NC1CCCc2sccc21)N1CCCc2ccccc21` (stereo not shown), the change in vivo at 400 ppm was determined as 4%.

With `O=C(NC1CC1)NC1CCCc2sccc21` (stereo not shown), the change in vivo at 400 ppm is 31%.

`O=C(Nc1nccs1)NC1CCCc2sccc21` (stereo not shown): the change in vivo at 400 ppm amounted to 11%.

Take `COc1ccc(N2CCN(C(=O)NC3CCCc4sccc43)CC2)cc1` (stereo not shown): the change in vivo at 400 ppm came out at 24%.

Turning to `O=C(NC1CCCc2sccc21)N1CCc2ccccc2C1` (stereo not shown), the change in vivo at 400 ppm is 7%.

As to `O=C(Nc1ccc([N+](=O)[O-])cc1)NC1CCCc2sccc21` (stereo not shown), the change in vivo at 400 ppm was 9%.

For the compound `CCOc1ccc(NC(=O)NC2CCCc3sccc32)cc1` (stereo not shown), the change in vivo at 400 ppm was determined as 8%.

Take `CCCCOc1ccc(NC(=O)NC2CCCc3sccc32)cc1` (stereo not shown): the change in vivo at 400 ppm turned out to be 9%.

Regarding `O=C(NC1CCCc2sccc21)N(O)C1CCCCC1` (stereo not shown), the change in vivo at 400 ppm turned out to be 19%.

On to `CC(=O)NC(=O)NC1CCCc2sccc21` (stereo not shown), for which the change in vivo at 400 ppm is -1.4%.

On to `COc1ccc(OC)c(NC(=O)NC2CCCc3sccc32)c1` (stereo not shown), for which the change in vivo at 400 ppm is 32.4%.

Regarding `COc1cccc(NC(=O)NC2CCCc3sccc32)c1` (stereo not shown), the change in vivo at 400 ppm was found to be 25%.

On to `COc1ccc(NC(=S)NC2CCCc3sccc32)cc1` (stereo not shown), for which the change in vivo at 400 ppm was -1.4%.

Consider `O=C(NOc1ccccc1)NC1CCCc2sccc21` (stereo not shown), for which the change in vivo at 400 ppm stood at 90.6%.

In the case of `NC(=O)NC1CCCc2sccc21` (single isomer, unassigned; (-)) [Table VI: O,H,H,H,H,H (levorotatory enantiomorph), (-)-4,5,6,7-tetrahydrobenzo[b]-thien-4-ylurea], the change in vivo at 400 ppm amounted to 122%.

Turning to `CNC(=O)NC1(C)CCCc2sccc21` (stereo not shown) [1-methyl-3-(4-methyl-4,5,6,7-tetrahydrobenzo[b]thien-4-yl)urea], the change in vivo at 400 ppm was determined as 39%.

Regarding `CNC(=O)NC1CCC(C)(C)c2sccc21` (stereo not shown) [1-methyl-3-(7,7-dimethyl-4,5,6,7-tetrahydrobenzo-[b]thien-4-yl)urea], the change in vivo at 400 ppm turned out to be 15%.

On to `NC(=O)NC1CCCc2sc(Br)cc21` (stereo not shown) [Table VI: O,Br,H,H,H,H, 2-bromo-4,5,6,7-tetrahydrobenzo[b]-thien-4-ylurea], for which the change in vivo at 400 ppm came to 76.3%.

As to `CCC(C)NC(=O)NC1CCCc2sc(C)c(C)c21` (stereo not shown) [Table VI: O,CH3,CH3,H,2-butyl,H], the change in vivo at 400 ppm was found to be 3%.

On to `Cc1sc2c(c1C)C(NC(N)=O)CCC2` (stereo not shown) [Table VI: O,CH3,CH3,H,H,H], for which the change in vivo at 400 ppm was 0%.

On to `CCC(C)NC(=O)NC1CCCc2sc(C)cc21` (stereo not shown) [Table VI: O,CH3,H,H,2-butyl,H], for which the change in vivo at 400 ppm turned out to be 2%.

For the compound `NC(=O)NC1CCCc2sc(Cl)cc21` (stereo not shown) [Table VI: O,Cl,H,H,H,H, 2-chloro-4,5,6,7-tetrahydrobenzo[b]thien-4-ylurea], the change in vivo at 400 ppm is 4.8%.

In the case of `Cc1csc2c1C(NC(N)=O)CCC2` (stereo not shown) [Table VI: O,H,CH3,H,H,H, 3-methyl-4,5,6,7-tetrahydrobenzo[b]thien-4-ylurea], the change in vivo at 400 ppm was 26%.

Turning to `CCCCCCNC(=O)NC1CCCc2scc(C)c21` (stereo not shown) [Table VI: O,H,CH3,H,H,n-hexyl], the change in vivo at 400 ppm amounted to 21%.

`CN(C(N)=O)C1CCCc2sccc21` (stereo not shown) [Table VI: O,H,H,CH3,H, 1-methyl-1-(4,5,6,7-tetrahydrobenzo[b]-thien-4-yl)urea]: the change in vivo at 400 ppm was 27.2%.

`C#CCN(Cc1ccccc1)C(=O)NC1CCCc2sccc21` (stereo not shown) [Table VI: O,H,H,H,CH2C6H5,CH2CCH]: the change in vivo at 400 ppm is 30%.

For `O=C(NC1CCCc2sccc21)N(O)Cc1ccccc1` (stereo not shown) [Table VI: O,H,H,H,CH2C6H5,OH], the change in vivo at 400 ppm came out at 12%.

Take `C#CCN(CC#C)C(=O)NC1CCCc2sccc21` (stereo not shown) [Table VI: O,H,H,H,CH2CCH,CH2CCH]: the change in vivo at 400 ppm was 27%.

In the case of `O=C(NC1CCCc2sccc21)N1CCCC1` (stereo not shown) [Table VI: O,H,H,H,CH2CH2CH2CH2], the change in vivo at 400 ppm turned out to be 18%.

With `O=C(NC1CCCc2sccc21)N1CCOCC1` (stereo not shown) [Table VI: O,H,H,H,CH2CH2OCH2CH2, N-(4,5,6,7-tetrahydrobenzo[b]thien-4-yl)-4-morpholinecarboxamide], the change in vivo at 400 ppm came to 9.9%.

`C=CCN(CC=C)C(=O)NC1CCCc2sccc21` (stereo not shown) [Table VI: O,H,H,H,CH2CHCH2,CH2CHCH2]: the change in vivo at 400 ppm was 4%.

Still in this assay, the particulars now being: Mus musculus, feed or water, 288 h, Table VII; 25 ppm in diet.
In the case of `NC(=O)NC1CCC(=O)c2sccc21` (single isomer, unassigned; (-)) [Table VII: O,H,H (levorotatory enantiomorph), (-)-4,5,6,7-tetrahydro-7-oxobenzo[b]thien-4-ylurea], the change in vivo at 25 ppm was 119%.

The same assay, now with this note: Mus musculus, feed or water, 288 h, Table VII; 200 ppm in diet.
`NC(=O)NC1CCC(=O)c2sccc21` (single isomer, unassigned; (+)) [Table VII: O,H,H (dextrorotatory enantiomorph), (+)-4,5,6,7-tetrahydro-7-oxobenzo[b]thien-4-ylurea]: the change in vivo at 200 ppm was found to be 9.4%.

The same assay, now with this note: Mus musculus, feed or water, 288 h, Table VII; 400 ppm in diet.
On to `O=C(NC(=O)C(Cl)(Cl)Cl)NC1CCC(=O)c2sccc21` (stereo not shown), for which the change in vivo at 400 ppm is 62.2%.

With `NC(=O)NC1CCC(=O)c2sc(Br)cc21` (stereo not shown) [2-bromo-4,5,6,7-tetrahydro-7-oxobenzo[b]thien-4-ylurea], the change in vivo at 400 ppm amounted to 35.9%.

Staying with this assay, now noted: Mus musculus, feed or water, 288 h, Table VIII; 50 ppm in diet.
Consider `NC(=O)NC1CCC(O)c2sccc21` (single isomer, unassigned; (+)) [Table VIII: O,H,H (dextrorotatory diastereomer, 95% isomer B), (+)-4,5,6,7-tetrahydro-7-hydroxybenzo[b]thien-4-ylurea], for which the change in vivo at 50 ppm was -11.3%.

Staying with this assay, now noted: Mus musculus, feed or water, 288 h, Table VIII; 200 ppm in diet.
`NC(=O)NC1CCC(O)c2sccc21` (mixture of isomers) [Table VIII: O,H,H (mixture of dextrorotatory diastereomers, 62% isomer B)]: the change in vivo at 200 ppm worked out at 13.5%.

The same assay, now with this note: Table VIII; 25 ppm in diet.
As for `NC(=O)NC1CCC(O)c2sccc21` (single isomer, unassigned; (+)) [Table VIII: O,H,H (dextrorotatory diastereomer, 90% isomer A), (+)-4,5,6,7-tetrahydro-7-hydroxybenzo[b]thien-4-ylurea], the “& Weight Gain Over Controls” value came to 3.7%.

Regarding `NC(=O)NC1CCC(O)c2sccc21` (single isomer, unassigned; (-)) [Table VIII: O,H,H (levorotatory diastereomer, 86% isomer A)], the “& Weight Gain Over Controls” value was 54.4%.

In the case of `NC(=O)NC1CCC(O)c2sccc21` (single isomer, unassigned; (-)) [Table VIII: O,H,H (levorotatory diastereomer, 91.5% isomer B)], the “& Weight Gain Over Controls” value is reported as 74.5%.
